A word on the IC50: it is the concentration at which inhibition is half-maximal.

This is an account of results in publication PMC5576570 (Cell chemical biology, 2017).

For assay [1], the system named is RA fibroblast-like synoviocytes (RA FLS). The assay can be described thus: Caspase-3/7 activity assay in RA FLS. The following applies: for increase of caspase activity: 48h TNFα treatment. Type of assay: cell-based, human.
Another assay has as its system IL-8 secretion. Kind of assay: IL-8 ELISA in RA FLS. The assay is classed as cell-based, human. The following applies: 24h treatment in the presence of TNFα. For orientation: In an ELISA, binding on a coated surface is turned into a signal by an enzyme label.
Another assay addresses TAK1-TAB1-GFP (Homo sapiens, UniProt O43318). The assay can be described thus: Elution of TAK1-TAB1-GFP from γ-linked ATP sepharose. Type of assay: binding. To be noted: lysate of HEK293T cells expressing TAK1-TAB1-GFP.
In another assay the test system is IL-6 secretion. Kind of assay: IL-6 ELISA in RA FLS. Type of assay: cell-based, human. To be noted: 24h treatment in the presence of TNFα, μM concentrations.
The subject of a further assay is panel of other kinases. To be noted: ref J. Wu et al., 2013; cited from earlier work.
The target in a further assay is TAK1/MAP3K7 (Homo sapiens, UniProt O43318). Kind of assay: MRC Dundee kinase panel / dose-response kinase assay. Type of assay: biochemical. To be noted: 10μM compound.
The target in another assay is IRAK4 (Homo sapiens, UniProt Q9NWZ3). Described as above. The assay is classed as biochemical. The following applies: 10μM compound.
For a further assay, the target named is IRAK1 (Homo sapiens, UniProt P51617). The description is as above. Type of assay: biochemical. To be noted: 10μM compound.
In the next assay the target is CLK2 (Homo sapiens, UniProt P49760). The assay can be described thus: MRC Dundee kinase panel. Type of assay: biochemical. The following applies: 10μM compound.
The target of another assay is MINK1 (Homo sapiens, UniProt Q8N4C8). Kind of assay: MRC Dundee kinase panel. To be noted: 10μM compound. The assay is classed as biochemical.
Assay [2] relates to MDA-MB-231 cells. Kind of assay: Caspase-3/7 activity assay in MDA-MB-231 cells. Type of assay: cell-based, human.
For assay [3], the system named is MDA-MB-231 cells. Kind of assay: Hoechst proliferation assay. Type of assay: cell-based, human.
Assay [4] concerns phosphorylation status of IKK, p38, and p65. Kind of assay: Western blot of TNFα signaling downstream of TAK1 in MDA-MB-231 cells. The following applies: 10μM pre-treatment 2h, TNFα time-course 60min. The assay is classed as cell-based, human.
The test system of assay [5] is phosphorylation of IKK, MAPK 8/9, and cJun. Kind of assay: Western blot dose-dependency in Hela cells after TNFα stimulation. The following applies: 15 minutes of TNFα stimulation. The assay is classed as cell-based, human. (In general: Immunoblotting shows a protein as a band on a membrane.)
Assay [6] relates to TAK1 Thr184 phosphorylation. The assay can be described thus: Cellular TAK1 autophosphorylation after TNFα stimulation. The assay is classed as cell-based. The following applies: 15min of TNFα stimulation.
The next assay deals with Src (Homo sapiens, UniProt P12931). Kind of assay: MRC Dundee kinase panel. To be noted: 10μM.
The next assay has as its target Yes1 (Homo sapiens, UniProt P07947). Kind of assay: MRC Dundee kinase panel. To be noted: 10μM.
In a further assay the target is MKK6/MAP2K6 (Homo sapiens, UniProt P52564). The assay can be described thus: MRC Dundee kinase panel. The following applies: 10μM, Table S1.
Another assay concerns the target MEKK1/MAP3K1 (Homo sapiens, UniProt Q13233). The assay can be described thus: MRC Dundee kinase panel. To be noted: 10μM, Table S1.
For another assay, the target named is MKK1/MAP2K1 (Homo sapiens, UniProt Q02750). Kind of assay: MRC Dundee kinase panel. To be noted: 10μM, Table S1.
In the next assay the test system is p38. Kind of assay: MRC Dundee kinase panel. To be noted: 10μM.
In a further assay the target is MAP3K5/ASK1 (Homo sapiens, UniProt Q99683). The assay can be described thus: MRC Dundee kinase panel. To be noted: 10μM, Table S1.
The target of another assay is T1, GCK/MAP4K2 (Homo sapiens, UniProt Q12851).
T1 sequence (Q12851 1-820): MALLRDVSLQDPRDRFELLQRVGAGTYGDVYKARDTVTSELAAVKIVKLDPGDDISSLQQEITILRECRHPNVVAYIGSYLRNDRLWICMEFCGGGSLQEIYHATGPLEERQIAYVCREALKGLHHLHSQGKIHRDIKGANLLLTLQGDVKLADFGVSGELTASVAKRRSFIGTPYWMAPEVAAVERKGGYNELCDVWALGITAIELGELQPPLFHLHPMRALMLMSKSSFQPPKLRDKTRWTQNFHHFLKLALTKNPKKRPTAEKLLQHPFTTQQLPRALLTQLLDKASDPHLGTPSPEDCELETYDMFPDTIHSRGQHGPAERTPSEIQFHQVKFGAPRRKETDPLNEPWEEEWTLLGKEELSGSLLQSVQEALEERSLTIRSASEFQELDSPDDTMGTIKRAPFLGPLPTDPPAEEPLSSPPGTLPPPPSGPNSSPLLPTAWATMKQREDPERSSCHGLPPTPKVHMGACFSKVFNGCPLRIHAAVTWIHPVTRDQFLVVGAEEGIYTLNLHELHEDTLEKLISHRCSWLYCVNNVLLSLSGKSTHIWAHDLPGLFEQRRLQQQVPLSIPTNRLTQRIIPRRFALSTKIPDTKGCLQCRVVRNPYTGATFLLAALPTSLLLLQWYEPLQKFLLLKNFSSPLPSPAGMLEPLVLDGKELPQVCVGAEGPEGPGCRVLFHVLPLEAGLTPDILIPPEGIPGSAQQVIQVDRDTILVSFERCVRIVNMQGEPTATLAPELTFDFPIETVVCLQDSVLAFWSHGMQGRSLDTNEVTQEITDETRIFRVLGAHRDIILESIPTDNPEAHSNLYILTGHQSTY
The assay can be described thus: MRC Dundee kinase panel / dose-response kinase assay.

Sequence of MINK1 (Q8N4C8 whole entry): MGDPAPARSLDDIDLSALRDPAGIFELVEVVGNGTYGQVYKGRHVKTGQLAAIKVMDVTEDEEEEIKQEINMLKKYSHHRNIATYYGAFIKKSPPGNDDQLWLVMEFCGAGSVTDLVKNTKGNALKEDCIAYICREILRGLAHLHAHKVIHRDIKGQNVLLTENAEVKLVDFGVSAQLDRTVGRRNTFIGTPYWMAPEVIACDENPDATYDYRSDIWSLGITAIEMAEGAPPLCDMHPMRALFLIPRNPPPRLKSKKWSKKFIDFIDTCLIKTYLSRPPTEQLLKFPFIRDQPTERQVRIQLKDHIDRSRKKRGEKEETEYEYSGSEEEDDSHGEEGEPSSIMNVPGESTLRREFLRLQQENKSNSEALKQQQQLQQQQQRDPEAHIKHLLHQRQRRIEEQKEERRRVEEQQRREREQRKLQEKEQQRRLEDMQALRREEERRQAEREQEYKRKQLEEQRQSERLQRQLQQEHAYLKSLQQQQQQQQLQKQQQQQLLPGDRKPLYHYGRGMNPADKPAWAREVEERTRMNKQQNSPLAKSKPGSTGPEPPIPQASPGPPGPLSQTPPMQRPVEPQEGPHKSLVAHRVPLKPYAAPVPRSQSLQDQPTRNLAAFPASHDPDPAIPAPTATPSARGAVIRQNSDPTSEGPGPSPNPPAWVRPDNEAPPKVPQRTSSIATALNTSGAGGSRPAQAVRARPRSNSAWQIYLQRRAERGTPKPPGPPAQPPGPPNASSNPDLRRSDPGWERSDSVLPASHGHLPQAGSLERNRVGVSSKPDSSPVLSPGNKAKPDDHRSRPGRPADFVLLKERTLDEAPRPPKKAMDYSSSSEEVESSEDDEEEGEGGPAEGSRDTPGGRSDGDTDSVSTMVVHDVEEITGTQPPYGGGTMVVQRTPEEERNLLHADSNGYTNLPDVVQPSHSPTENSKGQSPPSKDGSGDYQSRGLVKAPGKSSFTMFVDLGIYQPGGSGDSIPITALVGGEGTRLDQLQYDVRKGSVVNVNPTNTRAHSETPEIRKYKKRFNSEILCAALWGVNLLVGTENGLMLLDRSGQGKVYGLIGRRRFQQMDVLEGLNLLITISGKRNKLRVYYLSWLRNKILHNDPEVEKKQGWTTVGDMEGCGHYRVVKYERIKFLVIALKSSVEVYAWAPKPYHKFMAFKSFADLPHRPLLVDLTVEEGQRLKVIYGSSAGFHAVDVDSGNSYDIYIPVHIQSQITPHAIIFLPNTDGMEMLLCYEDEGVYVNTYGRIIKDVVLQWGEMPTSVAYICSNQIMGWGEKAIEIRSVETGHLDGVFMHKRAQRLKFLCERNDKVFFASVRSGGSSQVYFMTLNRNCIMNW
Sequence of IRAK4 (Q9NWZ3 whole entry): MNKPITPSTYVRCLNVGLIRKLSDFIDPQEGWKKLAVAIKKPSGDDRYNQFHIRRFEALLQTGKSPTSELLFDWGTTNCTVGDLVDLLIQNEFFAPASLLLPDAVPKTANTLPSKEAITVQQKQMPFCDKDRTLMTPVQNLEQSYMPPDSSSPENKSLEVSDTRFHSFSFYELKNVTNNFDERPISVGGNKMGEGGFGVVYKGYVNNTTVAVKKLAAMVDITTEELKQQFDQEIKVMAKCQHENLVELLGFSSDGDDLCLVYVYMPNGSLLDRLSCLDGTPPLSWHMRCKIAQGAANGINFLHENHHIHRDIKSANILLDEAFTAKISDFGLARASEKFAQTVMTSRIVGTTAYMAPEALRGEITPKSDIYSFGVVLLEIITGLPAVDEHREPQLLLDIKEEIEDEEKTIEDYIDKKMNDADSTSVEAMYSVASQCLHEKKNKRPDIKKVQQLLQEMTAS
Sequence of Yes1 (P07947 whole entry): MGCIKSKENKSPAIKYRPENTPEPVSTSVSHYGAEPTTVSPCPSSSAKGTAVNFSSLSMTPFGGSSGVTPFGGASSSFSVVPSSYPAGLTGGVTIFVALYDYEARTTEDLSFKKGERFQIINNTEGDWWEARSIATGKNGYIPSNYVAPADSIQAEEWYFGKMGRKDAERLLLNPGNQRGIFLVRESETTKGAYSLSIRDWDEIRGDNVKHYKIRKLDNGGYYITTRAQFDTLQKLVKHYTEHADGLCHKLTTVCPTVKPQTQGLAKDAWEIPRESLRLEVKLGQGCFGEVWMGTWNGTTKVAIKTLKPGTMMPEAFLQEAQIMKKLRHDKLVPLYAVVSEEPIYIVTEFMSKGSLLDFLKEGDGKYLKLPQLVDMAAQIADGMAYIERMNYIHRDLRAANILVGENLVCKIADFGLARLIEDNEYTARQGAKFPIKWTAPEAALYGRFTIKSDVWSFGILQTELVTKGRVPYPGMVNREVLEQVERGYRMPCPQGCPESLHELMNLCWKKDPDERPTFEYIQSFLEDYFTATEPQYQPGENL
Sequence of IRAK1 (P51617 whole entry): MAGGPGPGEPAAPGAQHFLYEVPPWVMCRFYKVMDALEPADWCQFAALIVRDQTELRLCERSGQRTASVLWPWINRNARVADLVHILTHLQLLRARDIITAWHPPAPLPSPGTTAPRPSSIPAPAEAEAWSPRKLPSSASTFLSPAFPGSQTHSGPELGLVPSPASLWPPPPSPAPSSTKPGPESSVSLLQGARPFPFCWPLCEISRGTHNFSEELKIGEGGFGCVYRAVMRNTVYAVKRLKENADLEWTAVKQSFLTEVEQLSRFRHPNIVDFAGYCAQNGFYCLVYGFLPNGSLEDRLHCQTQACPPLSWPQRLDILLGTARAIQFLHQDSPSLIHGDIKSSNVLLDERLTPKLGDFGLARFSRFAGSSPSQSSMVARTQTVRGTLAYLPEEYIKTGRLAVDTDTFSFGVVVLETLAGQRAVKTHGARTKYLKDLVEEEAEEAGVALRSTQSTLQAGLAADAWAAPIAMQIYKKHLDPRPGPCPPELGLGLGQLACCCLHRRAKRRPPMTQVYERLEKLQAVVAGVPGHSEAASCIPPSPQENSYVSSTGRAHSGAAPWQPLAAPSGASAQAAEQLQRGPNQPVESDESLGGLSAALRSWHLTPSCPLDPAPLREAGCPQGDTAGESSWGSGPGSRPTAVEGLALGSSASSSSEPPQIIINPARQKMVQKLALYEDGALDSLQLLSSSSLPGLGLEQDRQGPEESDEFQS
Sequence of MEKK1/MAP3K1 (Q13233 whole entry): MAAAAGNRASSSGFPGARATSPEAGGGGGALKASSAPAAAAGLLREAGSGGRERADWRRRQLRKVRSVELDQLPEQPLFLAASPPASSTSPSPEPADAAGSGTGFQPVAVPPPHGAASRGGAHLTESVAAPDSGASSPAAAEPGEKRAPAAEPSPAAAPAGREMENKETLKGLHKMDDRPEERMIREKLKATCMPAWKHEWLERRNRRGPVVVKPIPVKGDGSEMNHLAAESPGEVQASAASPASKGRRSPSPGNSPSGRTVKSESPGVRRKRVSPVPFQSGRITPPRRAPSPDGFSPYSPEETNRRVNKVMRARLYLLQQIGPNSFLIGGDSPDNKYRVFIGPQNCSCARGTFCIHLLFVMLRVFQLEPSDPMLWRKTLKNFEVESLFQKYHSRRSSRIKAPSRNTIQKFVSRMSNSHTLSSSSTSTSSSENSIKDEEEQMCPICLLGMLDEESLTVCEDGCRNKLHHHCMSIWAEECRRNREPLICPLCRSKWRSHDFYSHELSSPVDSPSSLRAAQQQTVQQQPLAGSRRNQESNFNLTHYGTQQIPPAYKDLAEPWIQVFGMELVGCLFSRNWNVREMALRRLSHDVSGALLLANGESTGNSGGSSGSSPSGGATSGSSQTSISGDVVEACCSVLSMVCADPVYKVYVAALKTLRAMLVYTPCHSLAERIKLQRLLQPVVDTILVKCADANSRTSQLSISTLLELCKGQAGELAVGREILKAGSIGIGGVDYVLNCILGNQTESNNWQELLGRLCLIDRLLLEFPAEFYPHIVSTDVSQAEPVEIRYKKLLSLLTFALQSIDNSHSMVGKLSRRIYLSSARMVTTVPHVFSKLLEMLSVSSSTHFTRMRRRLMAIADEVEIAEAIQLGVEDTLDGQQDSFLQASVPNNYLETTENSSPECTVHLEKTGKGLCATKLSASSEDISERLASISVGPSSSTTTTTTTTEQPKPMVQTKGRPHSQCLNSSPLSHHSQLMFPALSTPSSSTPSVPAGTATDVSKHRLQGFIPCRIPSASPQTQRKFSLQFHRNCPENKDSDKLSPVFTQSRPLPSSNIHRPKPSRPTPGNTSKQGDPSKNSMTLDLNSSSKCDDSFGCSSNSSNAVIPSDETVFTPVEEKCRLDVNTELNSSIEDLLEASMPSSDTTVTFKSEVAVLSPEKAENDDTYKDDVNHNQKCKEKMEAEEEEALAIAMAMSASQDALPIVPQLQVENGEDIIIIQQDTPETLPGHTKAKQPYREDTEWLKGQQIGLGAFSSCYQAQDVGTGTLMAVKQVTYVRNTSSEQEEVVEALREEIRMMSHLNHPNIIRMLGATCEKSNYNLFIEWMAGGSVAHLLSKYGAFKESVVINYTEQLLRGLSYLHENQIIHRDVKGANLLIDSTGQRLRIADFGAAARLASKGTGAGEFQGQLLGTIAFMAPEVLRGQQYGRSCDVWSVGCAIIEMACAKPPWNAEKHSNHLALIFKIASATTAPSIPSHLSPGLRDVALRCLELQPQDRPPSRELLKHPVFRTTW
Sequence of CLK2 (P49760 whole entry): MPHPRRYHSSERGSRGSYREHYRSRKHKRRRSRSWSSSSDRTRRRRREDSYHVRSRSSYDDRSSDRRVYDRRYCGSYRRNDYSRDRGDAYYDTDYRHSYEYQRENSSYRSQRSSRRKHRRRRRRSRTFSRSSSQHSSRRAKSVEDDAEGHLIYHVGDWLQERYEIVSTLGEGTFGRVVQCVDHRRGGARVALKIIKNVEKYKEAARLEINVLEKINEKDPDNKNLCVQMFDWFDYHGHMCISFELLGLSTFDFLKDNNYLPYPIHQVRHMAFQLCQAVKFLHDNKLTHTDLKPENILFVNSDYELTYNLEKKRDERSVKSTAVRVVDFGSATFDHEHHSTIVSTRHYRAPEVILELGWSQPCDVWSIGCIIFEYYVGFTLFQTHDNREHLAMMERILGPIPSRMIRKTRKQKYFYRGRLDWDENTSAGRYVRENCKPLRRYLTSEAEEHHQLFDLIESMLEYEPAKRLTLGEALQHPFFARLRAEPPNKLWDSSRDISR

For the compound `CCn1c(NC(=O)c2cccc(C(N)=O)c2)nc2ccccc21` [Compound 4, N-(1-ethyl-1H-benzo[d]imidazol-2-yl)isophthalamide], the “increase of caspase activity” value in assay [1] worked out at 33%. Further, in the assay with IL-8 secretion, the “reduction of IL-8 secretion” value amounted to 40%.

Consider `CCn1c(NC(=O)c2cccc(C(=O)O)c2)nc2ccccc21` [Compound 5, 3-((1-ethyl-1H-benzo[d]imidazol-2-yl)carbamoyl)benzoic acid], for which, in assay [1], the “increase of caspase activity” value is “marginal”.

For the compound `COc1cc(O)c2c(c1)/C=C/C[C@H](O)[C@H](O)C(=O)/C=C\C[C@H](C)OC2=O` [Compound 5ZO, (5Z)-7-oxozeaenol, reference compound], the “elution profile from ATP sepharose” value at TAK1-TAB1-GFP was “additional bands were present”. Further, in [1] (10ng/ml TNFα, 48h, concentrations above 1μM), the caspase induction result is “reduces caspase induction”. Further, in the assay on IL-6 secretion, the “inhibition of IL-6 secretion” value is given as “significantly more potent than the other compounds”. For the same compound, the “potency in IL-8 secretion experiments” value with IL-8 secretion was “significantly more potent than the other compounds”. Moreover, in the assay on panel of other kinases, the “number of other kinases potently inhibited” value is listed as “at least 50”.

As to `CCCn1c(NC(=O)c2cccc(C(N)=O)c2)nc2ccccc21` [Takinib, N-(1-Propyl-1H-benzo[d]imidazol-2-yl)isophthalamide], the “enzyme activity after exposure” value at TAK1/MAP3K7, at IRAK4, at IRAK1, on CLK2, on MINK1 and at GCK/MAP4K2 (10μM compound) was < 10% throughout. At TAK1-TAB1-GFP, the “elution profile from ATP sepharose” value is “eluted TAK1-TAB1-GFP quite selectively”. The “caspase 3/7 activity” value with MDA-MB-231 cells [2] (TNFα-stimulated, serum-starved cells, titrations) was “induced caspase activity in MDA-MB-231cells in a dose-dependent manner”; in the assay on MDA-MB-231 cells [2] (unstimulated cells (no TNFα)) it was “did not upregulate caspase activity”. Further, the “cell proliferation (DNA content)” value was “cells remain viable” in the assay on MDA-MB-231 cells [3] (TNFα not present) and “dose-dependent reduction of DNA content” in the assay with MDA-MB-231 cells [3] (TNFα-stimulated, 24h). Also, in [4], the “phosphorylation of IKK, p38, p65” value is on record as “reduced phosphorylation”. In assay [5], the “phosphorylation of IKK, MAPK 8/9, cJun” value is “inhibits phosphorylation of IKK, MAPK 8/9, and cJun in a dose-dependent manner”. For the same compound, the Thr184 phosphorylation result in assay [6] was “significantly reduced at low μM concentrations”. Moreover, the caspase activity result in assay [1] (24h treatment with TNFα) was “did not observe a dose-dependent effect on caspase activity”. Besides, the “apoptosis (caspase 3/7 activity)” value in assay [1] (48h, 10 and 30ng/ml TNFα) was “apoptosis was observed in the 10 and 30ng/ml groups in a dose-dependent manner”. The “increase of caspase activity” value in assay [1] is recorded as 33%. Also, the “inhibition of IL-6 secretion” value with IL-6 secretion is given as “almost complete inhibition”. Moreover, the “reduction of IL-8 secretion” value in the assay with IL-8 secretion is 40%. Besides, the “inhibition in initial kinome profiling” value against Src and against Yes1 was “only weakly inhibited” each time. The “inhibition in kinome profiling” value is recorded as “does not inhibit” on MKK6/MAP2K6; “does not inhibit” on MEKK1/MAP3K1; “does not inhibit” at MKK1/MAP2K1; “completely insensitive” with p38; “no efficacy” on MAP3K5/ASK1. At GCK/MAP4K2, this compound yielded an IC50 of 450 nM. The “lower potency on GCK compared to TAK1” value at GCK/MAP4K2 is listed as 45 fold.

Consider `C[C@@H]1CCN(C(=O)CC#N)C[C@@H]1N(C)c1ncnc2[nH]ccc12` [tofacitinib, reference compound], for which the “increase of caspase activity” value in assay [1] is listed as “no effect”. Further, in the assay on IL-8 secretion, the “reduction of IL-8 secretion” value worked out at 40%.
